Source: patent publication US12448391B2, “Bicyclic derivatives for treating endoparasites” (Elanco Tiergesundheit AG, priority 2019, dated 2025)

Legend:
[1] = system: D. immitis microfilariae; experiment: Dog heart worm microfilariae motility assay; format: cell-based; settings: Dirofilaria immitis, read-out: EC50 (motility inhibition)
[2] = system: H. contortus larvae; experiment: H. contortus Larval Development Assay (Hc LDA); settings: Haemonchus contortus, read-out: EC50 (motility inhibition)
Method: Ruminant Gastrointestinal (H. contortus Larval Development Assay (Hc LDA)):
H.c. eggs isolated from lamb fecal matter are allowed to hatch overnight. Test compounds are diluted in DMSO and added to a 96-well plate containing appropriate media. H.c. larvae are added to each well and plates are incubated for the desired time(s). Motility is assessed using an LCD camera imaging system. Percent motility inhibition values are generated relative to the average of the DMSO-only wells.

Compound	EC50 [1]	EC50 [2]
O=C(NN1CCOc2ccccc21)c1cnc2c(-c3cccc(Cl)c3Cl)cccc2c1N1CCOCC1 [Example 5.2, 8-(2,3-dichlorophenyl)-N-(2,3-dihydro-1,4-benzoxazin-4-yl)-4-morpholino-quinoline-3-carboxamide]	< 0.1 µg/mL	< 1 µg/mL
O=C(NN1CCOc2ccccc21)c1cnc2c(-c3cc(Cl)nc(Cl)c3)cccc2c1N1CCOCC1 [Example 5.12, 8-(2,6-dichloro-4-pyridyl)-N-(2,3-dihydro-1,4-benzoxazin-4-yl)-4-morpholino-quinoline-3-carboxamide]	< 0.1 µg/mL	< 1 µg/mL
O=C(NN1CCOc2ccccc21)c1cnc2c(-c3cc(F)cc(F)c3F)cccc2c1N1CCOCC1 [Example 5.6, N-(2,3-dihydro-1,4-benzoxazin-4-yl)-4-morpholino-8-(2,3,5-trifluorophenyl)quinoline-3-carboxamide]	< 0.1 µg/mL	< 1 µg/mL
CN(C)c1c(C(=O)NN2CCOc3ccccc32)ccc2c(-c3cc(Cl)cc(Cl)c3)cccc12 [Example 4.1, 5-(3,5-dichlorophenyl)-N-(2,3-dihydro-1,4-benzoxazin-4-yl)-1-(dimethylamino)naphthalene-2-carboxamide]	< 0.1 µg/mL	< 1 µg/mL
O=C(NN1CCOc2ccccc21)c1cnc2c(-c3cc(F)cc(F)c3F)nccc2c1N1CCOCC1 [Example 2.4, N-(2,3-dihydro-1,4-benzoxazin-4-yl)-4-morpholino-8-(2,3,5-trifluorophenyl)-1,7-naphthyridine-3-carboxamide]	< 0.1 µg/mL	< 1 µg/mL
O=C(NN1CCOc2ccccc21)c1cnc2c(-c3cc(F)c(F)c(F)c3F)cccc2c1N1CCOCC1 [Example 5.20, N-(2,3-dihydro-1,4-benzoxazin-4-yl)-4-morpholino-8-(2,3,4,5-tetrafluorophenyl)quinoline-3-carboxamide]	< 0.1 µg/mL	< 1 µg/mL
O=C(NN1CCOc2ccccc21)c1cnc2c(-c3cc(Cl)cc(F)c3F)cccc2c1N1CCOCC1 [Example 5.19, 8-(5-chloro-2,3-difluoro-phenyl)-N-(2,3-dihydro-1,4-benzoxazin-4-yl)-4-morpholino-quinoline-3-carboxamide]	< 0.1 µg/mL	< 1 µg/mL
CN(C)c1c(C(=O)NN2CCOc3ccccc32)cnc2c(-c3cccc(Cl)c3Cl)ccnc12 [Example 3.2, 8-(2,3-dichlorophenyl)-N-(2,3-dihydro-1,4-benzoxazin-4-yl)-4-(dimethylamino)-1,5-naphthyridine-3-carboxamide]	< 0.1 µg/mL	< 1 µg/mL
O=C(NN1CCOc2ccccc21)c1cnc2c(-c3cc(Cl)nc(C(F)(F)F)c3)cccc2c1N1CCOCC1 [Example 5.11, 8-[2-chloro-6-(trifluoromethyl)-4-pyridyl]-N-(2,3-dihydro-1,4-benzoxazin-4-yl)-4-morpholino-quinoline-3-carboxamide]	< 0.1 µg/mL	< 1 µg/mL
O=C(NN1CCOc2ccccc21)c1cnc2c(-c3cc(F)cc(F)c3F)c(F)ccc2c1N1CCOCC1 [Example 5.4, N-(2,3-dihydro-1,4-benzoxazin-4-yl)-7-fluoro-4-morpholino-8-(2,3,5-trifluorophenyl)quinoline-3-carboxamide]	< 0.1 µg/mL	< 1 µg/mL
O=C(NN1CCOc2ccccc21)c1cnc2c(-c3cc(F)c(F)cc3F)cccc2c1N1CCOCC1 [Example 5.16, N-(2,3-dihydro-1,4-benzoxazin-4-yl)-4-morpholino-8-(2,4,5-trifluorophenyl)quinoline-3-carboxamide]	< 0.1 µg/mL	< 1 µg/mL
O=C(NN1CCOc2ccccc21)c1cnc2c(-c3cccc(Cl)c3Cl)nccc2c1N1CCOCC1 [Example 2.7, N-(2,3-dihydro-1,4-benzoxazin-4-yl)-4-morpholino-8-(2,3-dichlorophenyl)-1,7-naphthyridine-3-carboxamide]	< 0.1 µg/mL	–
